According to patent US8334280B2, “Ligands of estrogen receptors α and β, method of their preparation, and pharmaceuticals comprising them” (Ustav Molekularni Genetikv AV CR, V.V.I., priority 2008, dated 2012):

Experiments:
Format in all cases: cell-based
human ERα = molecular target: T1, human ERα (Homo sapiens, UniProt P03372); experiment: reporter assay (luciferase) in COS-7 cells transfected with human ERα; conditions: for EC50: COS-7 cells, 24 h with compound, luciferase, read-out: EC50 of tested ligands in the reporter assays, ER α; for ligand selectivity for ERα in the reporter assays: ratio of relative activities of ERα and ERβ, E2 = 1.00
T1 construct: expressed in transfected cells; host or cells: COS-7
T1 sequence (P03372 1-595): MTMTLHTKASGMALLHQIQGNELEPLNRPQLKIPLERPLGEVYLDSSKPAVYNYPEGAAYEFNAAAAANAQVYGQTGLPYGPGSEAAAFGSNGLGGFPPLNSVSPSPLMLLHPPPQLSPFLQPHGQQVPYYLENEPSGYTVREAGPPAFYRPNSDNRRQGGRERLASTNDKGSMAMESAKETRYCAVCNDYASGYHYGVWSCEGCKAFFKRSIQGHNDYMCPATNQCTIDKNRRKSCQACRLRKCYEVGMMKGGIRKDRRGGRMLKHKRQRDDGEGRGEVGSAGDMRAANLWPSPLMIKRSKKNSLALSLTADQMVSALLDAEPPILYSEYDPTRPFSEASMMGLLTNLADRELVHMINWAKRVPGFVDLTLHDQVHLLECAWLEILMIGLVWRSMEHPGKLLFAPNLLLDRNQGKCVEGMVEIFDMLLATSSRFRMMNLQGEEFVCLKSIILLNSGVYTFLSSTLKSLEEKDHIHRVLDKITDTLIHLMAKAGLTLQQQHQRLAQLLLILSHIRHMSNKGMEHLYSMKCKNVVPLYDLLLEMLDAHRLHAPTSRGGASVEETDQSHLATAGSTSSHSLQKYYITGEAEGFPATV
Method: (§1) The activity of some of the selected novel ligands of estrogen receptors was determined in reporter assays with the COS-7 cells. The reporter assay has an advantage over a classical determination of the ligand binding affinity for the receptor because in the case of steroid hormone receptors the high affinity of the ligand for the receptor doesn't always result in the equally high potency of activating the transcription via the receptor. The COS-7 cell line provides a significant advantage for this type of experiment, since it doesn't express endogenous ERα or ERβ at significant levels, and therefore it is highly suitable for the reporter assays. In addition, these compounds were also tested in the reporter assays with HEK293 cell-line.
(§2) COS-7 cells were transfected with the expression vector encoding human ERα or ERβ and with the reporter vector containing one estrogen responsive element followed by the minimal thymidine kinase promoter from the herpes simples virus. Luciferase was used as a reporter gene. The cells were seeded in a white 96-well plate after transfection, and were further cultivated in the DMEM medium without phenol red containing 2 mM glutamine, 20 mM Hepes, pH 7.5, 5 μg/ml insulin, 5 μg/ml human transferine, 100 μg/m1 bovine serum albumin (BSA). Serially diluted compounds in DMSO were added to cells 24 hours after transfection, and after the next 24 hours the luciferase activity was measured using the commercial STEADY-GLO Luciferase Assay Kit (Promega) according to the manufacturer's instructions. The luminescence was measured using the combined spectrophotometer ENVISION (PerkinElmer) with 1 s signal integration. […] The ligand selectivity for the given receptor was calculated as a ratio of relative activities of ERα and ERβ for the given ligand.

human ERβ = molecular target: T2, human ERβ (Homo sapiens, UniProt Q92731); experiment: reporter assay (luciferase) in COS-7 cells transfected with human ERβ; conditions: for EC50: COS-7 cells, 24 h with compound, luciferase, read-out: EC50 of tested ligands in the reporter assays, ER β; for ligand selectivity for ERβ in the reporter assays: ratio of relative activities of ERα and ERβ, E2 = 1.00
T2 construct: expressed in transfected cells; host or cells: COS-7
Method: as §1, §2

MCF-7 cells = experiment: proliferation assay in estrogen-growth-dependent MCF-7 cell line; conditions: for proliferation effect on MCF-7 cells: 1 nM concentration
Method: The MCF-7 cell line was derived from a breast adenocarcinoma and, considering its growth dependency on estrogen, it is a valuable tool for evaluation of estrogenic properties of chemical compounds. Since MCF-7 cells express exclusively ERα, the proliferative effect of tested compounds is mediated mainly by this receptor.
MCF-7 cells were cultivated for 6 days in DMEM medium without phenol red containing 8% charcoal treated fetal calf serum and 2 mM glutamine. During this time the cells stopped proliferating and the medium was supplemented with different concentrations of tested compounds in DMSO. The cells were further cultured in the medium described above in the presence of tested compounds, and after 3 days the medium was changed and the tested compounds in DMSO were added to the medium once again. After another 3 days the amount of viable cells was measured using the kit […]-BLUE Cell Viability Assay (Promega) according to the manufacturer's instructions. The fluorescent measurement was carried out on the combined spectrophotometer ENVISION (PerkinElmer), and the results are shown in FIGS. 8 and 9.

T2 sequence (Q92731 whole entry): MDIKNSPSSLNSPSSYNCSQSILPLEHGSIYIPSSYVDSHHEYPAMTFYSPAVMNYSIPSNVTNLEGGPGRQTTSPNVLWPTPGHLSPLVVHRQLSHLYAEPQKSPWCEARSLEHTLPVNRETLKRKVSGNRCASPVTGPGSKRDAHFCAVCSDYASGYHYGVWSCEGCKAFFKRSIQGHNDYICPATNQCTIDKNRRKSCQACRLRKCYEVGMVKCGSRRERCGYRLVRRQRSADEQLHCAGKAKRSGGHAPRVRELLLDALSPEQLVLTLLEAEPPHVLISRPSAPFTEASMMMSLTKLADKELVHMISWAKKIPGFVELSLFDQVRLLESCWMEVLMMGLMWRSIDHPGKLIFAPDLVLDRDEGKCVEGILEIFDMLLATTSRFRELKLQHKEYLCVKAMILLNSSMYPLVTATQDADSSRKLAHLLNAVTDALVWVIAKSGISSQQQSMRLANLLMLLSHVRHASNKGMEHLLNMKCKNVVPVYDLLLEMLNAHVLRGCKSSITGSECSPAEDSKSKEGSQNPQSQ

SMILES	EC50 (human ERα)	ligand selectivity for ERα in the reporter assays (human ERα)	EC50 (human ERβ)	ligand selectivity for ERβ in the reporter assays (human ERβ)	proliferation effect on MCF-7 cells (MCF-7 cells)	stimulation of ERα in the reporter assays (human ERα; 1 nM)	toxic effect on MCF-7 cells (MCF-7 cells; high concentrations of ligands (1-10 μM))
CC(=O)C1(C(C)=O)Cc2ccc([C@]3(O)CC[C@H]4[C@@H]5CCc6cc(O)ccc6[C@H]5CC[C@@]43C)cc2C1 [PN228, 17α-(2,2-Diacetyl-1,3-dihydro-2H-inden-5-yl)-estradiol]	19 nM	1.16	60.4 nM	0.86	–	–	–
CCOC(=O)C1(C(=O)OCC)Cc2ccc([C@]3(O)CC[C@H]4[C@@H]5CCc6cc(O)ccc6[C@H]5CC[C@@]43C)cc2C1 [PN202, 17α[2,2-Bis(ethoxycarbonyl)-1,3-dihydro-2H-inden-5-yl]-estradiol]	3.85 nM	1.83	19.3 nM	0.55	comparable to estradiol	–	–
C[C@]12CC[C@@H]3c4ccc(O)cc4CC[C@H]3[C@@H]1CC[C@@]2(O)c1ccc2c(c1)CCC2 [PN214, 17α-(1,3-Dihydro-2H-inden-5-yl)-estradiol]	21.1 nM	0.02	1.08 nM	–	no activity	doesn't stimulate ERα	–
CCOC(=O)C1(C#N)Cc2ccc([C@]3(O)CC[C@H]4[C@@H]5CCc6cc(O)ccc6[C@H]5CC[C@@]43C)cc2C1 (stereo partly drawn) [PN233, 17α-[2-Cyano-2-(ethoxycarbonyl)-1,3-dihydro-2H-inden-5-yl]-estradiol]	–	–	12.8 nM	–	–	–	–
CCOC(=O)C1(C(C)=O)Cc2ccc([C@]3(O)CC[C@H]4[C@@H]5CCc6cc(O)ccc6[C@H]5CC[C@@]43C)cc2C1 (stereo partly drawn) [PN207, 17α-[2-Acetyl-2-(ethoxycarbonyl)-1,3-dihydro-2H-inden-5-yl]-estradiol]	–	–	14.5 nM	–	–	–	–
C[C@]12CC[C@@H]3c4ccc(O)cc4CC[C@H]3[C@@H]1CC[C@@H]2O [Ligand E2, estradiol, reference compound]	–	–	–	–	–	–	toxic effect
Cc1ccc(S(=O)(=O)N2Cc3ccc([C@]4(O)CC[C@H]5[C@@H]6CCc7cc(O)ccc7[C@H]6CC[C@@]54C)cc3C2)cc1 [PN229, 17α-(1,3-Dihydro-2-tosyl-2H-indol-5-yl)-estradiol]	–	–	62.7 nM	–	–	–	–
